Results reported in patent publication US5045566A, “Novel imidate insecticides” (ICI Americas Inc., priority 1989, dated 1991).

How the values were obtained:
Type in all cases: in vivo
[1] = system: Cabbage Looper [Trichoplusia ni (Hubner)]; test: Cabbage looper leaf dip (CL), 3-5 days; conditions: percent in solution, second-instar larvae
Method: (§1) The compounds in Tables 1 and 2 above were tested for insecticidal activity using the following testing procedures. LC50 values, based on the results of these tests and calculated according to dosage-mortality curves, are expressed in Table 3.
Cabbage Looper [Trichoplusia ni (Hubner)]:
Test compounds were diluted in a 50-50 acetone-water solution. Cotyledons of hyzini squash (Calabacita abobrinha), approximately 1×1.5 inches, were immersed in the test solutions for 2-3 seconds and placed on a wire screen to dry. The dried leaves were placed in petri dishes containing a moistened piece of filter paper and infested with 5 second-instar cabbage looper larvae. The dishes were placed in a high humidity chamber. Mortality of the larvae was recorded 3-5 days later. Test concentrations ranged from 0.1% downward. The LC-50 value is expressed below in Table 3 under the heading "CL" in terms of percent of the test compound in solution.

[2] = system: Black Bean Aphid [Aphis fabae (Scop.)]; test: Black bean aphid spray test on nasturtium (BBA), 48 hours; conditions: percent of test compound in sprayed solution
Method: as §1
Black Bean Aphid [Aphis fabae (Scop.)]:
Nasturtium plants (Tropaeolum sp.) approximately 5 cm tall, were transplanted into sandy loam soil in small cups and infested with 25-50 black bean aphids of mixed ages. Twenty-four hours later they were sprayed to the point of runoff with 50-50 acetone-water solutions of the test compounds. Treated plants were held in the greenhouse and mortality was recorded after 48 hours. Test concentrations ranged from 0.05% downward. The LC-50 value is expressed below in Table 3 under the heading "BBA" in terms of percent of the test compound in the sprayed solution.

[3] = system: Housefly [Musca domestica]; test: Housefly contact mortality in dishes (HF), 48 hours; conditions: μg of test compound per 25 female flies
Method: as §1
Housefly [Musca domestica]:
Test compounds were diluted in acetone and aliquots pipetted onto the bottom of aluminum dishes. To ensure even spreading of the chemical on the bottom of the dishes, 1 ml of acetone containing 0.01% peanut oil was also added to each dish. After all solvents had evaporated, the dishes were placed in circular cardboard cages containing 25 female houseflies, 1-2 days old. The cages were covered on the bottom with cellophane and on the top with tulle netting, and each contained a sugar-water saturated cotton plug for maintenance of the flies. Mortality was recorded after 48 hours. Test levels ranged from 100 μg/25 female houseflies downward. The LC-50 value is expressed below in Table 3 under the heading "HF", in terms of μg of the test compound per 25 female flies.

[4] = system: Tobacco Budworm [Heliothis virescens (Fabricius)] eggs; test: Tobacco budworm eggs (TBW-E); conditions: percent in solution; 2-day old eggs
Method: as §1
Tobacco Budworm [Heliothis virescens (Fabricius)]:
(b). Eggs: Paper towel patches of 2-day old eggs of the tobacco budworm were dipped in acetone solutions of the test compound and placed in petri dishes containing a portion of larval rearing medium. Treated eggs were maintained at 78° F. and mortality was recorded after all control eggs had hatched and the young larvae were feeding on the media. Test concentrations ranged from 0.1% downward. The LC-50 value is expressed below in Table 3 under the heading "TBW-E" in terms of percent of the test compound in the solution.

| SMILES | LC50 CL [1] [%] | LC50 BBA [2] [%] | LC50 HF [3] [µg] | LC50 TBW E (eggs) [4] [%] |
| --- | --- | --- | --- | --- |
| Cc1cccc(N=C(OCc2cccc(Oc3ccccc3)c2)C(C)C)c1C [Compound 148] | 0.0025 | 0.0003 | 18 | 0.025 |
| CC(C)C(=Nc1ccc(C#N)c(F)c1)OCc1cccc(Oc2ccc(F)cc2)c1 [Compound 222] | 0.0015 | 0.01 | 32 | > 0.1 |
| CC(C)C(=Nc1cccc(I)c1)OCc1cccc(Oc2ccccc2)c1 [Compound 136] | 0.004 | 0.002 | 9 | 0.08 |
| CC(C)C(=Nc1ccc(C#N)cc1)OCc1cccc(Oc2ccc(F)cc2)c1 [Compound 227] | 0.0015 | 0.01 | 10 | 0.1 |
| CC(C)C(=Nc1ccc(F)cc1)OCc1cccc(Oc2cccc(Cl)c2)c1 [Compound 205] | 0.004 | 0.03 | 50 | > 0.1 |
| Cc1ccc(N=C(OCc2cccc(Oc3ccccc3)c2)C(C)C)cc1C [Compound 158] | 0.003 | 0.0015 | 9 | 0.1 |
| CC(C)C(=Nc1c(Br)cc(F)cc1Br)OCc1cccc(Oc2ccccc2)c1 [Compound 130] | 0.005 | 0.05 | > 100 | > 0.1 |
| CC(C)C(=Nc1ccc2c(c1)OC(C)(C)O2)OCc1cccc(Oc2ccc(Cl)cc2)c1 [Compound 241] | 0.0004 | < 0.05 | > 100 | > 0.1 |
| CSc1ccc(N=C(OCc2cccc(Oc3ccccc3)c2)C(Cl)Cl)cc1 [Compound 141] | < 0.1 | 0.006 | 35 | > 0.1 |
| CC(C)C(=Nc1cc(F)ccc1F)OCc1cccc(Oc2ccccc2)c1 [Compound 56] | 0.01 | 0.03 | 91 | > 0.05 |
| CC(C)C(=Nc1c(F)c(F)c(F)c(F)c1F)OCc1cccc(Oc2ccc(F)cc2F)c1 [Compound 232] | 0.004 | > 0.05 | > 100 | > 0.1 |
| CC(C)C(=Nc1cc(F)c(F)cc1F)OCc1cccc(Oc2ccccc2)c1 [Compound 58] | 0.002 | 0.003 | 16 | 0.06 |
| FC(F)(F)c1ccc(Oc2ccc(COC(=Nc3ccc(Cl)cc3)C(Cl)Cl)cc2)nc1 [Compound 453] | 0.1 | > 0.05 | > 100 | – |
| CC(C)C(=Nc1ccc(Cl)c(Cl)c1)OCc1cccc(Oc2cccc(F)c2)c1 [Compound 40] | 0.0025 | – | 36 | 0.08 |
| CC(C)C(=Nc1ccc(Cl)c(C(F)(F)F)c1)OCc1cccc(Oc2cccc(F)c2)c1 [Compound 195] | 0.002 | – | > 100 | > 0.1 |
| CC(C)C(=Nc1ccc(C(C)(C)C)cc1)OCc1cccc(Oc2ccc(Cl)cc2)n1 [Compound 497] | 0.0075 | – | > 100 | > 0.1 |
| CC(C)C(=Nc1ccc2c(c1)OCO2)OCc1c(F)c(F)c(F)c(F)c1F [Compound 464] | 0.08 | – | > 100 | > 0.1 |
| CCC(=Nc1ccc(F)cc1F)OCc1cccc(Oc2ccccc2)c1 [Compound 59] | 0.02 | – | 25 | > 0.1 |
| CC(C)C(=Nc1cccc(C(F)(F)F)c1)OCc1ccc(OCc2ccc(F)cc2)cc1 [Compound 488] | 0.025 | – | > 100 | > 0.1 |
| CCC(=Nc1ccc(F)c(Cl)c1)OCc1cccc(Oc2ccc(F)cc2)c1 [Compound 115] | 0.0012 | – | 10 | 0.075 |
| CC(Cl)C(=Nc1ccc(Cl)c(Cl)c1)OCc1cccc(Oc2ccccc2)c1 (stereo not drawn) [Compound 27] | 0.04 | – | > 100 | > 0.1 |

| SMILES | LC50 CL [1] [%] | LC50 BBA [2] [%] | LC50 HF [3] [µg] | LC50 TBW E (eggs) [4] [%] |
| --- | --- | --- | --- | --- |
| CC(C)C(=Nc1ccc(F)c(Cl)c1)OCc1cccc(OCc2ccccc2)c1 [Compound 472] | 0.0025 | – | > 100 | > 0.1 |
| CCC(C)C(=Nc1ccc(Cl)cc1)OCc1cccc(Oc2ccccc2)c1 (stereo not drawn) [Compound 26] | 0.007 | – | > 100 | > 0.1 |
| FC(F)(F)c1cccc(N=C(OCc2cccc(Oc3ccccc3)c2)C2CC2)c1 [Compound 86] | 0.013 | < 0.05 | 65 | – |
| CC(C)C(=Nc1cccc(C(F)(F)F)c1)OCc1cccc(OCc2ccc(F)cc2)c1 [Compound 489] | < 0.1 | – | > 100 | > 0.1 |
| CC(C)C(=Nc1ccc(F)c(Cl)c1)OCc1ccc(OCc2ccc(F)cc2)cc1 [Compound 487] | 0.023 | – | > 100 | > 0.1 |
| CC(C)C(=Nc1ccc(F)c(Br)c1)OCc1cccc(Oc2ccc(Br)cc2)c1 [Compound 276] | 0.002 | – | 39 | 0.1 |
| CC(C)C(=Nc1ccc2c(c1)OCO2)OCc1cccc(Oc2ccccc2)n1 [Compound 467] | 0.003 | – | 6 | 0.04 |
| CCC(=Nc1cccc(Cl)c1Cl)OCc1cccc(Oc2ccccc2)c1 [Compound 28] | 0.009 | – | > 100 | > 0.1 |
| CC(C)C(=Nc1ccc(Cl)cc1Cl)OCc1cccc(Oc2ccccc2)c1 [Compound 311] | 0.0017 | – | 22 | 0.1 |
| CCC(C)C(=Nc1ccc(C(C)C)cc1)OCc1cccc(Oc2ccccc2)c1 (stereo not drawn) [Compound 317] | 0.0045 | – | > 100 | 0.03 |
| CCOc1cccc(N=C(OCc2cccc(Oc3ccccc3)c2)C(C)C)c1 [Compound 171] | 0.01 | – | 80 | > 0.1 |
| CC(C)C(=Nc1ccc(F)c(F)c1)OCc1cccc(Oc2ccc(Br)cc2)c1 [Compound 275] | 0.00012 | – | 21 | 0.045 |
| C=CCOc1cccc(COC(=Nc2ccc(Cl)c(Cl)c2)C(C)C)c1 [Compound 481] | 0.015 | – | > 100 | > 0.1 |
| CC(C)C(=Nc1ccc(F)cc1)OCc1coc(Cc2ccccc2)c1 [Compound 491] | 0.0028 | – | 9 | 0.08 |
| CC(C)C(=Nc1ccc(Cl)cc1Cl)OCc1cccc(Oc2ccc(F)cc2)c1 [Compound 312] | 0.006 | – | > 100 | > 0.1 |
| CC(C)C(=Nc1cccc(F)c1)OCc1cccc(Oc2ccc(F)cc2)c1 [Compound 200] | 0.00075 | – | 7.5 | 0.1 |
| CC(C)C(=Nc1cccc(OC(F)(F)C(F)F)c1)OCc1cccc(Oc2ccc(F)cc2)c1 [Compound 288] | 0.0015 | – | > 100 | > 0.1 |
| CC(C)C(=Nc1ccc(C(F)(F)F)cc1)OCc1ccc(F)c(Oc2ccc(F)cc2)c1 [Compound 287] | 0.0025 | – | > 100 | > 0.1 |
| CC(C)C(=Nc1ccc(F)c(Cl)c1)OCc1coc(Cc2ccccc2)c1 [Compound 474] | 0.0012 | – | 8 | > 0.1 |
| CC(Br)C(=Nc1ccc(F)c(Cl)c1)OCc1cccc(Oc2ccc(F)cc2)c1 (stereo not drawn) [Compound 305] | 0.048 | – | > 100 | > 0.1 |
